Article PMC7496434 (Chemmedchem, 2020)

Key:
1321N1 astrocytoma cells = assay: cells; set-up: MTT viability assay, absorbance at 570 nm; details: Homo sapiens, 1321-N1, 72 h; read-out: Growth inhibition IC50 ± SEM
Experimental: MTT assays: The test compounds were investigated at human 1321 N1 astrocytoma cells using the 3‐(4,5‐dimethylthiazol‐2‐yl)‐2,5‐diphenyltetrazolium bromide (MTT) assay in order to assess their cytotoxic effects. Assays were performed as previously described by Baqi et al.30 In brief, cells were detached from the 175 cm^2 culture flasks in which they were grown and subsequently counted using a Neubauer haemocytometer. Then, they were resuspended in the growth medium. An aliquot of the cell suspension (180 μL) was added into each well of a 96‐well plate to obtain 1000 cells per well and incubated for 24 h at 37 °C, 5 % CO2, and 95 % humidity. The outer wells of the 96‐well plate were filled with 200 μL of phosphate‐buffered saline (PBS) to prevent evaporation of the fluid. After 24 h, stock solutions (10 mM) of the test compounds (archazolids) were prepared in DMSO and diluted with cell culture medium to give tenfold of the final concentrations. […] The spectrophotometric absorbance was subsequently measured at 570 nm using a FlexStation (3 multimode plate reader, molecular devices) with a filter of 690 nm. The data were analyzed using Microsoft Excel and GraphPad Prism 5. Results were evaluated by comparing the absorbance of the wells containing compound‐treated cells with the absorbance of wells containing 1 % DMSO without any drug (=100 % viability). […]

human P2X3 receptor = target: T1, human P2X3 receptor (Homo sapiens, UniProt P56373); assay: inhibition of ATP-induced calcium influx; assay type: cell-based; details: agonist ATP at ~80% of maximal effect; read-out: 6
T1 construct: gene P2RX3; full-length receptor stably expressed in 1321 N1 astrocytoma cells; homotrimer
T1 sequence (P56373 1-397): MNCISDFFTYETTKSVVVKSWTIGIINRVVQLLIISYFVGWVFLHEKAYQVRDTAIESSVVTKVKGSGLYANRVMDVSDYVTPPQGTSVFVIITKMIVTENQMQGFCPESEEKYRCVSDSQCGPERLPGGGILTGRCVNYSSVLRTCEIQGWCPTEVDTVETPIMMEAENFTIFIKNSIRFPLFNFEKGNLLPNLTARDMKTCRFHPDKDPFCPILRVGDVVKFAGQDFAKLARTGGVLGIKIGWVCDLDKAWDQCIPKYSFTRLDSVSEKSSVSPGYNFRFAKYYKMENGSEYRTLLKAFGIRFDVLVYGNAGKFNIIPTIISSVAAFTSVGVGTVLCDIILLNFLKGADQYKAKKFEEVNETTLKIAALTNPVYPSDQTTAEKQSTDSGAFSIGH
Text: inhibition of ATP-induced calcium influx on human P2X3 receptor

[1] = target: T2, human leukocyte elastase (HLE) (Homo sapiens, UniProt P08246); assay: chromogenic assay, […] nm; assay type: biochemical; details: 100 μM MeO-Suc-Ala-Ala-Pro-Val-pNA, sodium phosphate pH 7.8, 500 mM NaCl, 25 °C, 1.5% DMSO; read-out: 6
T2 construct: gene ELANE; enzyme stock in sodium acetate buffer
T2 sequence (P08246 30-247): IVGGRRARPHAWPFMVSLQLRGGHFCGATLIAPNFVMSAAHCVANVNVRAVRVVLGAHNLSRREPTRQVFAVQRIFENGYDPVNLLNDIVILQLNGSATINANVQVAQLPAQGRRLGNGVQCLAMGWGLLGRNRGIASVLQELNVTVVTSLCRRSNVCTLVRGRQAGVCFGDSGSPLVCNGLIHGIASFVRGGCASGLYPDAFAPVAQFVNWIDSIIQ

[2] = target: T3, human adenosine A3 receptor (A3AR) (Homo sapiens, UniProt P0DMS8); assay: [3H]PSB-11 radioligand competition, CHO membranes; assay type: binding; details: 0.5 nM [3H]PSB-11, 50 mM Tris-HCl pH 7.4, 23 °C, 60 min; read-out: 6
T3 construct: gene ADORA3; membrane preparations of CHO cells expressing human A3AR
T3 sequence (P0DMS8 1-318): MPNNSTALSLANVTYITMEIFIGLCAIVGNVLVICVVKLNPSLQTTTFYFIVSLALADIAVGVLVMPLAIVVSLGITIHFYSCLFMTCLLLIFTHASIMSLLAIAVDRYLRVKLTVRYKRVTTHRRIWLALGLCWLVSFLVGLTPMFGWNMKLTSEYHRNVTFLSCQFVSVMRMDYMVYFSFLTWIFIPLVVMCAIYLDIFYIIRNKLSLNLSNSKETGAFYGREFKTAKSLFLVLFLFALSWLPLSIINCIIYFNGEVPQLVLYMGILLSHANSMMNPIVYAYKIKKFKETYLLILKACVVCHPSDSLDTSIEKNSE
Text: [3H]PSB-11 radioligand competition, CHO membranes on human adenosine A3 receptor (A3AR)

IC50 (1321N1 astrocytoma cells)	IC50 (human P2X3 receptor)	Ki [1]	Ki [2]	SMILES
19.6 ± 4 nM				COC1C(C)=CCCCCOC(=O)CCCC(C)=CC(O)C(C)C=C(C)C=C(C)C=CC(O)C1C (stereo not shown) [compound 6]
	1190 ± 180 nM	13300 ± 1500 nM	436 ± 111 nM	COC1C(C)=CCCCCOC(=O)CCCC(C)=CC(O)C(C)C=C(C)C=C(C)C=CC(O)C1C (stereo not shown) [compound 6, Analogue 6]
